Results reported in patent US20260097051A1, “CANNA[…] A T[…] FOR COVID-19” (AUGUSTA UNIVERSITY RESEARCH INSTITUTE, INC., priority 2021, published 2026).
“Also recorded” adds a separate entry of the source.

Assays:
[1] = tested on: monoacylglycerol lipase (MAGL); details: De Petrocellis et al., 2011; cited from earlier work
[2] = tested on: Poly(I:C)-induced ARDS in C57BL/6 mice; test: Poly(I:C)-induced ARDS mouse model, CBC treatment
Procedure: Animal model and application of Poly(I:C) and CBC: Wild-type (WT) C57BL/6 mice (male, 12 weeks old) were divided into 3 experimental groups of sham, control and treatment (n=5). […] All mice were anesthetized with isoflurane. Sham group received PBS while control and treatment groups were administered by Poly(I:C) (Sigma Aldrich, USA) (100 μg in 50 μl sterile PBS) intranasally (I/N) three once-daily doses. CBC (isolate THC free) was delivered intraperitoneally (5mg/kg), first dose two hours after the second Poly(I:C) treatment and every other day interval, total of 3 doses. Sham and control groups received PBS only. All mice were sacrificed at 8 days after the first Poly(I:C) application. Blood and lung tissues were harvested and subjected to the further analysis.
Measurement of vital signs: Vital signs including temperature, Blood O2 saturation were measured prior and post of any treatment. Central body temperature was measured rectally and blood oxygen saturation was determined using portable pulse oximetry through carotid arteries.
Histology and immunohistochemistry: Left lobes of lung tissue were fixed in 10% neutral buffered formalin. Samples were processed by routine methods, oriented so as to provide coronal sections and 5 micron mid-coronal sections cut and stained with hematoxylin & eosin, Trichrome for histology. As for inflammatory indices, immunohistochemistry was performed by incubating the samples with specific antibodies against murine IL-6 (Cat #554402, BD BioSciences Pharmingen) and Neutrophils (Cat #G102, Leinco Technologies). Preparations were counterstained with hematoxylin (catalog no. 7221; Richard-Allan Scientific, Kalamazoo, MI, USA) and mounted in Faramount (catalog no. S3025, DAKO), analyzed and imaged by brightfield microscopy.
Analytical Flow Cytometry: Single cell suspension was prepared from lung tissues. Briefly, tissue samples were sieved through a 100 μM cell strainer (BD Biosciences, San Diego, CA), followed by centrifugation (1,000 rpm, 10 min) to prepare single-cell suspensions. All cells were then stained with fluorescent antibodies to quantify neutrophils, macrophages, lymphocytes and cytokine expression. Briefly, all cells were stained with anti-Gr1 (Neutrophils), Anti-F4/80 (Macrophages), and anti-CD3/CD4/CD8 (Lymphocytes, all from Biolegend USA). Then cells were fixed and permeabilized and stained intracellularly for cytokines including IL-6, TNFα, IL-2, and IFNγ (Proinflammatory cytokines). All samples were run through a 4-Laser LSR II flow cytometer. Cells were gated based on forward and side scatter properties and on marker combinations to select cells of interest. All acquired flow cytometry data were analyzed using the FlowJo V10.
Statistical analysis: Graphs and summary statistics were also used to assess the results. All statistical tests were 2-sided. Except for where noted, all p-values presented are unadjusted for multiple comparisons.

[3] = target: transient receptor potential (TRP) ankyrin 1-type (TRPA1) channels (Rattus norvegicus, UniProt Q6RI86); details: De Petrocellis et al., 2008; 2011; cited from earlier work
Chain of transient receptor potential (TRP) ankyrin 1-type (TRPA1) channels (Q6RI86 whole entry): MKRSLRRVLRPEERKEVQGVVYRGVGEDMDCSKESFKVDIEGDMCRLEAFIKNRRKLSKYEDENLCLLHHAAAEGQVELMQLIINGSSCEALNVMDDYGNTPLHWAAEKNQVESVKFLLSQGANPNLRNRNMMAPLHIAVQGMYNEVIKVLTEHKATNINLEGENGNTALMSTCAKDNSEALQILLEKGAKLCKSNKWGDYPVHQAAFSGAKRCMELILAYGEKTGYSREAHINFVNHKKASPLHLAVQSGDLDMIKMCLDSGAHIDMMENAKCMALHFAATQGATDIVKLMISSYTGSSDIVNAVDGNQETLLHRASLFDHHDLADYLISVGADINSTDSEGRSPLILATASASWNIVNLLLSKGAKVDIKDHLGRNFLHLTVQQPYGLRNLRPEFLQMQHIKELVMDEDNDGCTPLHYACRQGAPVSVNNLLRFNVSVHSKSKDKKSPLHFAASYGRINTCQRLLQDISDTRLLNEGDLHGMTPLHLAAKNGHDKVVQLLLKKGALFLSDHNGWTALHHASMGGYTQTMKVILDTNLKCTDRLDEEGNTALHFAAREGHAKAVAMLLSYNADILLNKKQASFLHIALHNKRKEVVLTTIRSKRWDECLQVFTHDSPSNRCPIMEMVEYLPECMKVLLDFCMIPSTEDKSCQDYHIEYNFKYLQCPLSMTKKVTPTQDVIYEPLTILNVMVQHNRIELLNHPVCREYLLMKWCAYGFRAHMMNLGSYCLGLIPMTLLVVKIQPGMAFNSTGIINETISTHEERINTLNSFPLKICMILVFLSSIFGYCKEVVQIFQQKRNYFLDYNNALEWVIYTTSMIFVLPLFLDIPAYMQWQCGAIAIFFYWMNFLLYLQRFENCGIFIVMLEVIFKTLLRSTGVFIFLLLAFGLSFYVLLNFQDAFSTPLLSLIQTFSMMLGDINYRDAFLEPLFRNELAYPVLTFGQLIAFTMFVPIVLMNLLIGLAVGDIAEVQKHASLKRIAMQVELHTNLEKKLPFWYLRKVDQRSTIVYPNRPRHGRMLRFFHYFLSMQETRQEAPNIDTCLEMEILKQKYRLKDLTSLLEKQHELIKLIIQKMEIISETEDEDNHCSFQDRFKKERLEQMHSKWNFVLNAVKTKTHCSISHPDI

[4] = tested on: endocannabinoid cellular reuptake; details: Ligresti et al., 2006; cited from earlier work
[5] = tested on: Poly(I:C)-induced ARDS in C57BL/6 mice; test: Poly(I:C)-induced ARDS mouse model, CBD treatment
Procedure: Animal model and application of Poly(I:C) and CBC: Adult (12 weeks) male C57B1/6 mice were block randomized into one of three experimental groups (n=10 mice/group) by a blinded investigator. Group I received intranasal, once daily administration of sterile saline for three consecutive days to serve as a control. Group II received intranasal, once daily administration of Poly I:C (100 μg in 50 μL in sterile saline) for three consecutive days to mimic ARDS. Group III received intranasal, once daily administration of Poly I:C (100 μg in 50 μL in sterile saline) for three consecutive days, with intraperitoneal administration of CBD (isolate CBD, THC-free, 5 mg/kg body weight, Canabidiol Ltd, Dublin, Ireland), first dose two hours after the second Poly(I:C) treatment and every other day for a total of 3 doses to the treatment group. Blood oxygen saturation was quantified via the carotid arteries using a portable pulse oximeter at study initiation (day 0) and once daily for the duration of the study. Mice were euthanized at study day nine. Blood and lung tissue were harvested and subjected to flow cytometry, immunofluorescence and histological analysis, as detailed above. All flow cytometry data were analysed using the FlowJo V10 software while immunofluorescence, and histological preparations were analysed and imaged by fluorescence and bright field microscopy. As for additional histological evaluation, Masson's Trichrome staining was used for the detection of collagen fibres in lung on formalin-fixed, paraffin-embedded sections. The collagen fibres stained in blue and the background is stained red. Sections were examined and analysed using bright field microscopy imaging.

[6] = blood, vs untreated counterparts, p<0.01
[7] = lung tissue, PIC+CBC vs sham or PIC
[8] = lung, vs untreated counterparts, p<0.01
[9] = lung tissue, CBD after Poly(I:C)
[10] = whole blood, CBD 5 mg/kg intraperitoneal, 3 doses, after Poly(I:C)

Row | Structure (SMILES) | inhibition of monoacylglycerol lipase (MAGL) [1] | increase in blood oxygen saturation ([2]; Poly(I:C) mice, CBC treated vs untreated PIC) [%] | blood oxygen saturation after CBC treatment ([2]; Poly(I:C) mice, pulse oximetry, untreated PIC group 90%) [%] | IFNγ expression level in blood (flow cytometry) [2, 6] | IL-6 expression level in blood (flow cytometry) [2, 6] | IL-17 expression level in blood (flow cytometry) [2, 6] | lung histology (H&E, Masson's trichrome): structural damage, hypertrophy and fibrosis ([2]; lung tissue, PIC+CBC vs PIC) | TRPA1 expression in lung tissue (immunohistochemistry) [2, 7] | TRPV1 expression in lung tissue (immunohistochemistry) [2, 7] | IFNγ expression level in lung (flow cytometry) [2, 8] | IL-6 expression level in lung (flow cytometry) [2, 8] | IL-17 expression level in lung (flow cytometry) [2, 8] | activation of TRPA1 channels [3] | inhibition of endocannabinoid cellular reuptake [4] | apelin expression in lung tissue (immunofluorescence) [5, 9] | lung histology (Masson's trichrome): inflammatory infiltrate, fibrosis, hypertrophy, pulmonary oedema [5, 9] | apelin expression in blood (flow cytometry) [5, 10] | blood T cells (flow cytometry) [5, 10] | blood neutrophils (flow cytometry) [5, 10]
1 | CCCCCc1cc(O)c2c(c1)OC(C)(CCC=C(C)C)C=C2 (stereo not shown) [CBC, cannabichromene] | weak inhibitor | 8 | 98 | curtailed the expression levels | curtailed the expression levels | curtailed the expression levels | reduced hypertrophy and fibrosis | increased the level of expression | increased the level of expression | curtailed the expression levels | curtailed the expression levels | curtailed the expression levels | potent activator | inhibitor of endocannabinoid cellular reuptake | – | – | – | – | –
2 | C=C(C)[C@@H]1CCC(C)=C[C@H]1c1c(O)cc(CCCCC)cc1O [CBD, cannabidiol] | – | – | – | – | – | – | – | – | – | – | – | – | – | – | increased apelin expression towards control levels; also recorded: normalized the Apelin expression | completely or partially abolished; also recorded: improved the structure towards the normal architecture | enhanced expression of apelin; also recorded: normalized the expression level of apelin; also recorded: attenuated these effects | returned decreased T cells and increased neutrophils towards the normal level | returned decreased T cells and increased neutrophils towards the normal level
